Assay results published in publication PMC6352943, “Novel pyrazolo[3,4-d]pyrimidines: design, synthesis, anticancer activity, dual EGFR/ErbB2 receptor tyrosine kinases inhibitory activity, effects on cell cycle profile and caspase-3-mediated apoptosis” (Journal of Enzyme Inhibition and Medicinal Chemistry, 2019).

Tests used:
NCI-H460 = experiment: MTT cell viability assay; assay type: cell-based, human; settings: Homo sapiens; NCI-H460 lung cancer, MTT, 48 h, mean ± SD of three experiments; read-out: IC50 (concentration required for 50% inhibition of cell viability)
Protocol: (§1) Cell Line cells were obtained from American Type Culture Collection, cells were cultured using Dulbecco's Modified Eagle's medium (DMEM) (Invitrogen/Life Technologies) supplemented with 10% foetal bovine serum (FBS) (Hyclone), 10 μg/mL of insulin (Sigma), and 1% penicillin-streptomycin. All of the other chemicals and reagents were from Sigma, or Invitrogen. Plate cells (cells density 1.2 – 1.8 × 10,000 cells/well) in a volume of 100 µL complete growth medium and 100 μL of the tested compound per well in a 96-well plate for 24 h before the MTT assay.
(§2) Remove culture medium to a centrifuge tube. […] Add 2.0 to 3.0 ml of Trypsin EDTA solution to flask and observe cells under an inverted microscope until cell layer is dispersed. Add 6 to 8 ml of complete growth medium and aspirate cells by gently pipetting. Transfer the cell suspension to the centrifuge tube with the medium and centrifuge for 5 to 10 min. Discard the supernatant. Resuspend the cell pellet in fresh growth medium. Add appropriate aliquots of the cell suspension to new culture vessels. Incubate cultures at 37 °C for 24 h. After treatment of cells with the serial concentrations of the compound to be tested incubation is carried out for 48 h at 37 °C, then the plates are to be examined under the inverted microscope and proceed for the MTT assay.
(§3) The 3–(4, 5-dimethylthiazol-2-yl)-2,5-diphenyltetrazolium bromide (MTT) method[30] of monitoring in vitro cytotoxicity is well suited for use with multiwell plates. The assessment of cell population growth is based on the capability of living cells to reduce the yellow product MTT to a blue product, formazan, by a reduction reaction occurring in the mitochondria. The five cell lines were incubated for 24 h in 96-microwell plates. The number of living cells in the presence or absence (control) of the various test compounds is directly proportional to the intensity of the blue colour, measured by spectrophotometry using (ROBONIK P2000 Spectrophotometer) at a wavelength of 570 nm. Measure the background absorbance of multiwell plates at 690 nm and subtract from the 570 nm measurement. Five concentrations ranging from 0.01 μM to 100 μM (with semi-log decrease in concentration) were tested for each of the compounds under study. Each experiment was carried out in triplicate. The IC50 values [the concentration required for 50% inhibition of cell viability] were calculated using sigmoidal dose response curve-fitting models.

OVCAR-4 = experiment: MTT cell viability assay; assay type: cell-based, human; settings: Homo sapiens; OVCAR-4 ovarian cancer, MTT, 48 h, mean ± SD of three experiments; read-out: IC50 (concentration required for 50% inhibition of cell viability)
Protocol: as §1, §2, §3

ACHN = experiment: MTT cell viability assay; assay type: cell-based, human; settings: Homo sapiens; ACHN renal cancer, MTT, 48 h, mean ± SD of three experiments; read-out: IC50 (concentration required for 50% inhibition of cell viability)
Protocol: as §1, §2, §3

melting point [°C] | IC50 (NCI-H460) [µM] | IC50 (OVCAR-4) [µM] | IC50 (ACHN) [µM] | Compound
262 to 264 | – | – | – | Cc1nn(-c2ccc(F)cc2)c2ncnc(NN=Cc3ccncc3)c12 [Compound 10d, 1–(4-Fluorophenyl)-3-methyl-4–(2-(pyridin-4-yl-methylidene) hydrazinyl)-1H-pyrazolo[3,4-d]pyrimidine]
– | 8.36 ± 0.69 | 2.79 ± 0.41 | 12.4 ± 1.88 | C#Cc1cccc(Nc2ncnc3cc(OCCOC)c(OCCOC)cc23)c1 [Erlotinib, reference compound]
